Results on ten molecules are retold here after ChEMBL document CHEMBL3621085, “Tetrazole regioisomers in the development of nitro group-containing antitubercular agents” (Medchemcomm, 2015).

Values after ≈ are worked out from the molar mass of the structure shown.

In experiment [1] the test system is Mycobacterium kansasii. The experiment is described as follows: Antimycobacterial activity against Mycobacterium kansasii 6509/96 after 21 days by micromethod. Particulars: 6509/96, 504 h. It is filed as functional.
The test system of experiment [2] is Mycobacterium tuberculosis. Put plainly: Antimycobacterial activity against Mycobacterium tuberculosis My 331/88 after 21 days by micromethod. Particulars: My 331/88, 504 h. It is filed as functional.
Experiment [3] concerns Mycobacterium avium. Put plainly: Antimycobacterial activity against Mycobacterium avium My 330/88 after 14 days by micromethod. The experiment is classed as functional. Particulars: My 330/88, 336 h.
The subject of experiment [4] is Mycobacterium tuberculosis. Put plainly: Antimycobacterial activity against Mycobacterium tuberculosis My 331/88 after 14 days by micromethod. It is filed as functional. The note with it: My 331/88, 336 h.
For experiment [5], the system named is Mycobacterium kansasii. Put plainly: Antimycobacterial activity against Mycobacterium kansasii My 235/80 after 14 days by micromethod. The experiment is classed as functional. The note with it: My 235/80, 336 h.
Experiment [6] has as its system Mycobacterium avium. The experiment is described as follows: Antimycobacterial activity against Mycobacterium avium My 330/88 after 21 days by micromethod. The experiment is classed as functional. The note with it: My 330/88, 504 h.
Experiment [7] has as its system Mycobacterium kansasii. Put plainly: Antimycobacterial activity against Mycobacterium kansasii My 235/80 after 7 days by micromethod. The note with it: My 235/80, 168 h. It is filed as functional.
The test system of experiment [8] is Mycobacterium kansasii. Put plainly: Antimycobacterial activity against Mycobacterium kansasii 6509/96 after 7 days by micromethod. The experiment is classed as functional. The note with it: 6509/96, 168 h.
In experiment [9] the test system is Mycobacterium kansasii. The experiment is described as follows: Antimycobacterial activity against Mycobacterium kansasii My 235/80 after 21 days by micromethod. The experiment is classed as functional. Particulars: My 235/80, 504 h.
Experiment [10] concerns Mycobacterium kansasii. The experiment is described as follows: Antimycobacterial activity against Mycobacterium kansasii 6509/96 after 14 days by micromethod. The experiment is classed as functional. Particulars: 6509/96, 336 h.
Experiment [11] can be described thus: Cytotoxicity against CHOK1 cells assessed as viability after 24 hrs by MTT assay. It is filed as cell-based. The note with it: Cricetulus griseus, CHO-K1, 24 h. A general note: Tetrazolium dyes change colour on reduction, which living cells bring about.

One may read the MIC as the smallest concentration in the dilution series that meets the test's criterion for growth inhibition. Lower therefore signals greater potency. What is called IC50 is the midpoint of a concentration-inhibition curve. Regarding `O=[N+]([O-])c1cc(Cn2nnc(SCc3ccccc3)n2)cc([N+](=O)[O-])c1`, the MIC against Mycobacterium kansasii [1] was 32 µM (≈ 11.9 µg/mL); in [2], 16 µM (≈ 5.96 µg/mL); in the experiment on Mycobacterium avium [3] it was 125 µM (≈ 46.5 µg/mL); in [4], 16 µM (≈ 5.96 µg/mL); in the experiment on Mycobacterium kansasii [5], 32 µM (≈ 11.9 µg/mL); in the experiment with Mycobacterium avium [6], 125 µM (≈ 46.5 µg/mL). The MIC against Mycobacterium kansasii [7] came to 16 µM (≈ 5.96 µg/mL); in the experiment on Mycobacterium kansasii [8], 16 µM (≈ 5.96 µg/mL); in the experiment on Mycobacterium kansasii [9], 32 µM (≈ 11.9 µg/mL); in the experiment with Mycobacterium kansasii [10], 32 µM (≈ 11.9 µg/mL). Besides, in experiment [11], the IC50 amounted to 148 µM.

With `Cn1nnc(SCc2ccc([N+](=O)[O-])cc2[N+](=O)[O-])n1`, the MIC in the experiment on Mycobacterium kansasii [1] turned out to be 125 µM (≈ 37 µg/mL); in experiment [2] it was 8 µM (≈ 2.37 µg/mL); against Mycobacterium avium [3] it was 125 µM (≈ 37 µg/mL); in experiment [4], 4 µM (≈ 1.19 µg/mL); against Mycobacterium kansasii [5], 125 µM (≈ 37 µg/mL); with Mycobacterium avium [6] it was 125 µM (≈ 37 µg/mL). For the same molecule, the MIC worked out at 32 µM (≈ 9.48 µg/mL) against Mycobacterium kansasii [7], 32 µM (≈ 9.48 µg/mL) against Mycobacterium kansasii [8], 125 µM (≈ 37 µg/mL) in the experiment with Mycobacterium kansasii [9] and 125 µM (≈ 37 µg/mL) with Mycobacterium kansasii [10].

Regarding `COc1ccc(C[Se]c2nnnn2Cc2ccc([N+](=O)[O-])cc2[N+](=O)[O-])cc1`, the MIC against Mycobacterium kansasii [1] was found to be 32 µM (≈ 14.4 µg/mL); in experiment [2] it was 8 µM (≈ 3.59 µg/mL); against Mycobacterium avium [3], 125 µM (≈ 56.2 µg/mL); in experiment [4], 4 µM (≈ 1.8 µg/mL); with Mycobacterium kansasii [5], 32 µM (≈ 14.4 µg/mL); in the experiment on Mycobacterium avium [6] it was 125 µM (≈ 56.2 µg/mL). The MIC was 16 µM (≈ 7.19 µg/mL) against Mycobacterium kansasii [7], 4 µM (≈ 1.8 µg/mL) in the experiment on Mycobacterium kansasii [8], 62 µM (≈ 27.9 µg/mL) against Mycobacterium kansasii [9] and 16 µM (≈ 7.19 µg/mL) in the experiment with Mycobacterium kansasii [10].

For `Cn1nnc(SCc2cc([N+](=O)[O-])cc([N+](=O)[O-])c2)n1`, the MIC is 16 µM (≈ 4.74 µg/mL) with Mycobacterium kansasii [1]; 4 µM (≈ 1.19 µg/mL) in [2]; 125 µM (≈ 37 µg/mL) in the experiment on Mycobacterium avium [3]; 2 µM (≈ 0.593 µg/mL) in experiment [4]; 8 µM (≈ 2.37 µg/mL) against Mycobacterium kansasii [5]; 250 µM (≈ 74.1 µg/mL) against Mycobacterium avium [6]. Moreover, the MIC against Mycobacterium kansasii [7] stood at 4 µM (≈ 1.19 µg/mL); in the experiment with Mycobacterium kansasii [8], 8 µM (≈ 2.37 µg/mL); against Mycobacterium kansasii [9], 8 µM (≈ 2.37 µg/mL); in the experiment on Mycobacterium kansasii [10], 16 µM (≈ 4.74 µg/mL).

Consider `Cn1nnc([Se]Cc2cc([N+](=O)[O-])cc([N+](=O)[O-])c2)n1`, for which the MIC with Mycobacterium kansasii [1] was 4 µM (≈ 1.37 µg/mL); in experiment [2], 2 µM (≈ 0.686 µg/mL); against Mycobacterium avium [3], 250 µM (≈ 85.8 µg/mL); in [4] it was 1 µM (≈ 0.343 µg/mL); in the experiment on Mycobacterium kansasii [5], 4 µM (≈ 1.37 µg/mL); against Mycobacterium avium [6] it was 250 µM (≈ 85.8 µg/mL). Besides, the MIC with Mycobacterium kansasii [7] was found to be 2 µM (≈ 0.686 µg/mL); in the experiment with Mycobacterium kansasii [8] it was 2 µM (≈ 0.686 µg/mL); in the experiment on Mycobacterium kansasii [9] it was 8 µM (≈ 2.75 µg/mL); against Mycobacterium kansasii [10], 4 µM (≈ 1.37 µg/mL).

With `Cn1nnnc1SCc1cc([N+](=O)[O-])cc([N+](=O)[O-])c1`, the MIC was 32 µM (≈ 9.48 µg/mL) against Mycobacterium kansasii [1]; 8 µM (≈ 2.37 µg/mL) in experiment [2]; 500 µM (≈ 148 µg/mL) with Mycobacterium avium [3]; 4 µM (≈ 1.19 µg/mL) in experiment [4]; 16 µM (≈ 4.74 µg/mL) against Mycobacterium kansasii [5]; 1000 µM (≈ 296 µg/mL) with Mycobacterium avium [6]. Moreover, the MIC in the experiment with Mycobacterium kansasii [7] was determined as 4 µM (≈ 1.19 µg/mL); against Mycobacterium kansasii [8], 16 µM (≈ 4.74 µg/mL); in the experiment with Mycobacterium kansasii [9], 32 µM (≈ 9.48 µg/mL); in the experiment with Mycobacterium kansasii [10], 32 µM (≈ 9.48 µg/mL).

In the case of `O=[N+]([O-])c1ccc(Cn2nnc([Se]Cc3ccccc3)n2)c([N+](=O)[O-])c1`, the MIC against Mycobacterium kansasii [1] amounted to 32 µM (≈ 13.4 µg/mL); in experiment [2], 1 µM (≈ 0.419 µg/mL); in the experiment on Mycobacterium avium [3], 4 µM (≈ 1.68 µg/mL); in experiment [4], 1 µM (≈ 0.419 µg/mL); in the experiment on Mycobacterium kansasii [5], 16 µM (≈ 6.71 µg/mL); against Mycobacterium avium [6], 8 µM (≈ 3.35 µg/mL). Besides, the MIC came to 8 µM (≈ 3.35 µg/mL) with Mycobacterium kansasii [7], 8 µM (≈ 3.35 µg/mL) in the experiment with Mycobacterium kansasii [8], 16 µM (≈ 6.71 µg/mL) against Mycobacterium kansasii [9] and 16 µM (≈ 6.71 µg/mL) in the experiment with Mycobacterium kansasii [10].

Regarding `Cn1nnnc1[Se]Cc1ccc([N+](=O)[O-])cc1[N+](=O)[O-]`, the MIC was determined as 250 µM (≈ 85.8 µg/mL) against Mycobacterium kansasii [1]; 32 µM (≈ 11 µg/mL) in experiment [2]; 250 µM (≈ 85.8 µg/mL) against Mycobacterium avium [3]; 32 µM (≈ 11 µg/mL) in experiment [4]; 125 µM (≈ 42.9 µg/mL) with Mycobacterium kansasii [5]; 250 µM (≈ 85.8 µg/mL) with Mycobacterium avium [6]. Further, the minimum inhibitory concentration (MIC) in the experiment on Mycobacterium kansasii [7] was 62 µM (≈ 21.3 µg/mL); in the experiment with Mycobacterium kansasii [8] it was 62 µM (≈ 21.3 µg/mL); against Mycobacterium kansasii [9] it was 125 µM (≈ 42.9 µg/mL); against Mycobacterium kansasii [10], 125 µM (≈ 42.9 µg/mL).

Consider `O=[N+]([O-])c1ccc(C[Se]c2nnn(Cc3ccc([N+](=O)[O-])cc3)n2)cc1`, for which the MIC in the experiment with Mycobacterium kansasii [1] was 125 µM (≈ 52.4 µg/mL); in experiment [2] it was 62 µM (≈ 26 µg/mL); in the experiment on Mycobacterium avium [3], 250 µM (≈ 105 µg/mL); in [4], 62 µM (≈ 26 µg/mL); against Mycobacterium kansasii [5] it was 125 µM (≈ 52.4 µg/mL); in the experiment on Mycobacterium avium [6], 250 µM (≈ 105 µg/mL). Further, the MIC against Mycobacterium kansasii [7] stood at 32 µM (≈ 13.4 µg/mL); in the experiment on Mycobacterium kansasii [8], 62 µM (≈ 26 µg/mL); with Mycobacterium kansasii [9] it was 125 µM (≈ 52.4 µg/mL); against Mycobacterium kansasii [10], 125 µM (≈ 52.4 µg/mL).

On to `O=[N+]([O-])c1ccc(Cn2nnnc2[Se]Cc2ccccc2)c([N+](=O)[O-])c1`, for which the MIC was found to be 125 µM (≈ 52.4 µg/mL) in the experiment on Mycobacterium kansasii [1]; 2 µM (≈ 0.839 µg/mL) in experiment [2]; 16 µM (≈ 6.71 µg/mL) against Mycobacterium avium [3]; 1 µM (≈ 0.419 µg/mL) in [4]; 62 µM (≈ 26 µg/mL) against Mycobacterium kansasii [5]; 32 µM (≈ 13.4 µg/mL) in the experiment on Mycobacterium avium [6]. For the same molecule, the MIC with Mycobacterium kansasii [7] is 32 µM (≈ 13.4 µg/mL); with Mycobacterium kansasii [8] it was 16 µM (≈ 6.71 µg/mL); against Mycobacterium kansasii [9] it was 62 µM (≈ 26 µg/mL); with Mycobacterium kansasii [10], 62 µM (≈ 26 µg/mL).
